Assay results as given in patent US12262710B2, “Fungicidal compounds” (SYNGENTA CROP PROTECTION AG, priority 2019, dated 2025).

Columns and labels:
[1] = system: Puccinia recondita f. sp. tritici; test: Puccinia recondita (brown rust), preventative, wheat leaf segments; assay type: in vivo; details: foliar, 192 h, 8 dpi, compared to untreated control
Protocol: (§1) Wheat leaf segments are placed on agar in multiwell plates (24-well format) and sprayed with test solutions. After drying, the leaf segments are inoculated with a spore suspension of the fungus. After appropriate incubation the activity of a compound is assessed 8 dpi (days after inoculation) as preventative fungicidal activity.

Glomerella lagenarium = Glomerella lagenarium syn. Colletotrichum lagenarium (anthracnose of cucurbits), liquid culture growth inhibition; assay type: cell-based; details: Colletotrichum orbiculare, nutrient broth (PDB), 72 hrs, photometric at 620 nm, compared to untreated control
Protocol: Glomerella lagenarium Syn. Colletotrichum lagenarium (Anthracnose of Cucurbits): Conidia of the fungus from cryogenic storage were directly mixed into nutrient broth (PDB potato dextrose broth). A DMSO solution of the test compounds was placed into a microtiter plate (96-well format) and the nutrient broth containing the fungal spores was added to it. The test plates were incubated at 24° C. and the inhibition of growth was determined photometrically after 72 hrs at 620 nm. […]

Phakopsora pachyrhizi [2] = test: Example E: comparative activity against Phakopsora pachyrhizi (soybean rust), soybean leaf disks sprayed; assay type: in vivo; details: 0.025% Tween20, approx. 12 dpi
Protocol: Method: Compounds to be tested are prepared as DMSO solutions which are diluted to the appropriate concentration with 0.025% Tween20 just before spraying. Soybean leaf disks are placed on agar in multiwell plates (24-well format) and sprayed with test solutions. After drying, the leaf disks are inoculated with a spore suspension of the fungus. After appropriate incubation the activity of a compound is assessed approx. 12 dpi (days after inoculation) as preventive fungicidal activity. The data are presented as the percentage of disease control of each compound for the biological tests and testing rates described below in Table J.

Phakopsora pachyrhizi [3] = test: Example D: comparative activity against Phakopsora pachyrhizi (soybean rust), soybean plants sprayed, leaf disks cut from treated plants; assay type: in vivo; details: 0.1% OCHIMA, leaf disks cut one day after application, approx. 12 dpi
Protocol: Method: Soybean plants are sprayed in a spray chamber with formulated DMSO compound solutions which are diluted to the appropriate concentration with 0.1% […] (adjuvant comprising polyethoxylated sorbitol hexaoleate and tris(2-ethylhexyl) phosphate) just before spraying. Leaf disks are cut from treated plants and placed on agar into 24-well plates one day after application. After, the leaf disks are inoculated with a spore suspension of the fungus. After appropriate incubation the activity of a compound is assessed approx. 12 dpi (days after inoculation) as preventive fungicidal activity. The data are presented as the percentage of disease control of each compound for the biological tests and testing rates described below in Table 1.

[4] = system: Erysiphe graminis f. sp. tritici; test: Erysiphe graminis f. sp. tritici (wheat powdery mildew), wheat leaf segments, preventive; assay type: in vivo; details: Blumeria graminis, foliar, 168 h, 7 dpi, compared to untreated control
Protocol: Wheat leaf segments are placed on agar in multiwell plates (24-well format) and sprayed with test solutions. After drying, the leaf disks are inoculated with spores of the fungus. After appropriate incubation the activity of a compound is assessed 7 dpi (days post inoculation) as preventive fungicidal activity.

Plasmopara viticola = Plasmopara viticola (downy mildew of grapevine), grape vine leaf disks, preventive; assay type: in vivo; details: foliar, 168 h, 7 dpi, compared to untreated control
Protocol: as §1, with “Grape vine” for “Wheat”, “disks” for “segments”, “7” for “8”, “preventive” for “preventative”

Puccinia recondita = test: Example C: comparative activity against Puccinia recondita (brown rust), curative, wheat leaf segments; assay type: in vivo; details: 8 dpi
Protocol: Method; Wheat leaf segments are placed on agar in multiwell plates (24-well format). The leaf segments are inoculated with a spore suspension of the fungus and sprayed with test solutions 1 day after inoculation. After appropriate incubation the activity of a compound is assessed 8 dpi (days after inoculation) as curative fungicidal activity. The data are presented as the percentage of disease control of each compound for the biological tests and testing rates described below in table H.

Mycosphaerella arachidis = Mycosphaerella arachidis syn. Cercospora arachidicola (brown leaf spot of peanut), liquid culture growth inhibition; assay type: cell-based; details: nutrient broth (PDB), approximately 5-6 days, photometric at 620 nm, compared to untreated control
Protocol: Conidia of the fungus from cryogenic storage were directly mixed into nutrient broth (PDB potato dextrose broth). A DMSO solution of the test compounds was placed into a microtiter plate (96-well format) and the nutrient broth containing the fungal spores was added to it. The test plates were incubated at 24° C. and the inhibition of growth was determined photometrically after approximately 5-6 […] at 620 nm.

[5] = system: Puccinia recondita f. sp. tritici; test: Puccinia recondita (brown rust), curative, wheat leaf segments; assay type: in vivo; details: foliar, 192 h, sprayed 1 day after inoculation, 8 dpi, compared to untreated control
Protocol: Wheat leaf segments are placed on agar in multiwell plates (24-well format). The leaf segments are inoculated with a spore suspension of the fungus and sprayed with test solutions 1 day after inoculation. After appropriate incubation the activity of a compound is assessed 8 dpi (days after inoculation) as curative fungicidal activity.

Pyricularia oryzae = test: whole plant or invertebrate; assay type: in vivo; details: foliar, 120 h, read-out: control of Pyricularia oryzae
Alternaria solani = Alternaria solani (early blight of tomatoes), tomato leaf disks; assay type: in vivo; details: foliar, inoculated 2 days after application, compared to untreated control
Protocol: Alternaria solani (Early Blight of Tomatoes) Tomato leaf disks are placed on agar in multiwell plates (24-well format) and sprayed with the formulated test compound diluted in water. The leaf disks are inoculated with a spore suspension of the fungus 2 days after application. The inoculated leaf disks are incubated at 23° C./21° C.

Monographella nivalis = Monographella nivalis syn. Microdochium nivale (snow mould, foot rot of cereals), liquid culture growth inhibition; assay type: cell-based; details: nutrient broth (PDB), 72 hrs, photometric at 620 nm, compared to untreated control
Protocol: Conidia of the fungus from cryogenic storage were directly mixed into nutrient broth (PDB potato dextrose broth). A DMSO solution of the test compounds was placed into a microtiter plate (96-well format) and the nutrient broth containing the fungal spores was added to it. The test plates were incubated at 24° C. and the inhibition of growth was determined photometrically after 72 hrs at 620 nm. […] Cercospora arachidicola (Brown Leaf Spot of Peanut): […]

Phytophthora infestans = test: whole plant or invertebrate; assay type: in vivo; details: in Solanum lycopersicum, foliar, 96 h, read-out: control of Phytophthora infestans
Phakopsora pachyrhizi [6] = test: Phakopsora pachyrhizi (soybean rust), soybean leaf disks, preventive; assay type: in vivo; details: foliar, 288 h, approx. 12 dpi, compared to untreated control
Protocol: as §1, with “Soybean” for “Wheat”, “disks” for “segments”, “approx. 12” for “8”, “preventive” for “preventative”

SMILES | pest or weed control at 200 ppm [1] [%] | inhibition of growth at 20 ppm (Glomerella lagenarium) [%] | control (%) Phakopsora pachyrhizi (Soybean rust) (Phakopsora pachyrhizi [2]; 0.6 ppm) [%] | control (%) Phakopsora pachyrhizi (Soybean rust) (Phakopsora pachyrhizi [2]; 2 ppm) [%] | control (%) Phakopsora pachyrhizi (Soybean rust) (Phakopsora pachyrhizi [2]; 6 ppm) [%] | control (%) Phakopsora pachyrhizi (Soybean rust) (Phakopsora pachyrhizi [2]; 20 ppm) [%] | control (%) Phakopsora pachyrhizi (Soybean rust) (Phakopsora pachyrhizi [2]; 60 ppm) [%] | control (%) Phakopsora pachyrhizi (Soybean rust) (Phakopsora pachyrhizi [2]; 200 ppm) [%] | control (%) Phakopsora pachyrhizi (Soybean rust) (Phakopsora pachyrhizi [3]; 6 ppm) [%] | control (%) Phakopsora pachyrhizi (Soybean rust) (Phakopsora pachyrhizi [3]; 20 ppm) [%] | control (%) Phakopsora pachyrhizi (Soybean rust) (Phakopsora pachyrhizi [3]; 60 ppm) [%] | control (%) Phakopsora pachyrhizi (Soybean rust) (Phakopsora pachyrhizi [3]; 200 ppm) [%] | pest or weed control at 200 ppm [4] [%] | pest or weed control at 200 ppm (Plasmopara viticola) [%] | inhibition of growth at 20 ppm (Mycosphaerella arachidis) [%] | pest or weed control at 200 ppm [5] [%] | pest or weed control at 200 ppm (Pyricularia oryzae) [%] | pest or weed control at 200 ppm (Alternaria solani) [%] | inhibition of growth at 20 ppm (Monographella nivalis) [%] | pest or weed control at 200 ppm (Phytophthora infestans) [%] | further results
CO/C=C(\Oc1cc(C2CCCCC2)ccc1C)C(=O)OC [E.15, methyl (Z)-2-(5-cyclohexyl-2-methyl-phenoxy)-3-methoxy-prop-2-enoate] | ≥ 80 | ≥ 80 | 10 | 70 | 95 | 100 | 100 | 100 | 0 | 51 | 97 | 99 | ≥ 80 | ≥ 80 | ≥ 80 | ≥ 80 | ≥ 80 | ≥ 80 | ≥ 80 | ≥ 80 | control (%) Puccinia recondita (Brown rust), curative (Puccinia recondita; 20 ppm): 90%; control (%) Puccinia recondita (Brown rust), curative (Puccinia recondita; 60 ppm): 100%; control (%) Puccinia recondita (Brown rust), curative (Puccinia recondita; 200 ppm): 100%; pest or weed control at 60 ppm (Phakopsora pachyrhizi [6]): ≥ 70%
CO/C=C(\Oc1cc(C2CCCC2)ccc1C)C(=O)OC [E.13, methyl (Z)-2-(5-cyclopentyl-2-methyl-phenoxy)-3-methoxy-prop-2-enoate] | ≥ 80 | ≥ 80 | 10 | 10 | 60 | 100 | 100 | 100 | 0 | 4 | 46 | 98 | ≥ 80 | ≥ 80 | ≥ 80 | ≥ 80 | ≥ 80 | ≥ 80 | ≥ 80 | ≥ 80 | control (%) Puccinia recondita (Brown rust), curative (Puccinia recondita; 20 ppm): 0%; control (%) Puccinia recondita (Brown rust), curative (Puccinia recondita; 60 ppm): 0%; control (%) Puccinia recondita (Brown rust), curative (Puccinia recondita; 200 ppm): 100%; pest or weed control at 60 ppm (Phakopsora pachyrhizi [6]): ≥ 70%
CO/C=C(\Oc1cc(C2CCCCC2)c(F)cc1C)C(=O)OC [E.16, methyl (Z)-2-(5-cyclohexy1-4-fluoro-2-methyl-phenoxy)-3-methoxy-prop-2-enoate] | ≥ 80 | ≥ 80 |  |  |  |  |  |  |  |  |  |  | ≥ 80 | ≥ 80 | ≥ 80 | ≥ 80 | ≥ 80 | ≥ 80 | ≥ 80 | ≥ 80 | 
